Results: ChEMBL document CHEMBL1133338, “Novel 3-(4-piperidinylthio)-1H-indoles as potent nonopioid orally active central analgesics” (Bioorg Med Chem Lett, 2000)

Legend:
[1] = test system: Mus musculus; assay: Compound (at 30 mg/kg) was evaluated in vivo for the inhibition of phenylbenzoquinone induced painful reactions in mice; format: functional
[2] = test system: Mus musculus; assay: In vivo analgesic activity in phenylbenzoquinone-induced writhing test in mice; format: functional
[3] = test system: Mus musculus; assay: In vivo analgesic activity in hot plate test in mice; format: functional
[4] = test system: Mus musculus; assay: Compound (at 30 mg/kg) was evaluated in vivo for the inhibition of painful reactions in mice in the hot plate test; format: functional
[5] = test system: Rattus norvegicus; assay: Compound after peroral administration was tested for inhibition of kaolin-induced arthritis in rats; format: functional; details: po
[6] = target: Sodium-dependent serotonin transporter (Rattus norvegicus, UniProt P31652); assay: Binding affinity on Serotonin transporter was determined in rat
Chain of Sodium-dependent serotonin transporter (P31652 whole entry): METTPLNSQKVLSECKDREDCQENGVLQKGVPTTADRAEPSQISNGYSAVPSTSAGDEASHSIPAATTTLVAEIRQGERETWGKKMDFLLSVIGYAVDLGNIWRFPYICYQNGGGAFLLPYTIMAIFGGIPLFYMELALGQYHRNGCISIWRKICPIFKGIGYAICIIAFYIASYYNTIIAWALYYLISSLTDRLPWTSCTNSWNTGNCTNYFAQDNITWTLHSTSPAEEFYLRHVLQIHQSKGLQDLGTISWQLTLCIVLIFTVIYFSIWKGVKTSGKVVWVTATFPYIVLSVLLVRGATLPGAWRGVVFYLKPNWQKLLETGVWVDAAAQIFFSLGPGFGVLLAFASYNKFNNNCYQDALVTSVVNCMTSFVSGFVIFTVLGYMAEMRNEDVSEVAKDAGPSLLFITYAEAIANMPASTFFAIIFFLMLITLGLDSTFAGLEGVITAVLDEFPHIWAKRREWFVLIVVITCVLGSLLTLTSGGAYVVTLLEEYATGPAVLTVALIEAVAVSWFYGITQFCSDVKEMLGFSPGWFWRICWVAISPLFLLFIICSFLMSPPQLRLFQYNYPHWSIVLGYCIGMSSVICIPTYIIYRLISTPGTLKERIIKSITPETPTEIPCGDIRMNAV

[7] = test system: Rattus norvegicus; assay: Compound (at 60 mg/kg perorally) was tested for inhibition of Freund's adjuvant-induced polyarthritis in rats; format: functional; details: route oral
[8] = test system: Mus musculus; assay: Effective dose in mice after intraperitoneal administration by tail pinch test; format: functional; details: ip
[9] = species: Mus musculus; assay: Effective dose in mice by tail pinch test
[10] = species: Rattus norvegicus; assay: Compound was tested for inhibition of Freund's adjuvant-induced polyarthritis in rats; format: functional
[11] = species: Rattus norvegicus; assay: Compound was tested for inhibition of kaolin induced arthritis in rats

Compound	inhibition in vivo at 30 mg/kg [1]	ED50 [2]	ED50 [3]	other results
CN1CCC(Sc2c[nH]c3ccccc23)CC1	26%			
CN1CCC(Sc2c[nH]c3ccc(I)cc23)CC1		54.2 mg/kg		
COc1ccc2[nH]cc(SC3CCN(C)CC3)c2c1		24.9 mg/kg		
Clc1ccc2[nH]cc(SC3CCNCC3)c2c1		0.3 mg/kg	1.2 mg/kg	
CC(=O)N1CCC(Sc2c[nH]c3ccc(Cl)cc23)CC1		2.9 mg/kg	3.8 mg/kg	
CCCC(=O)N1CCC(Sc2c[nH]c3ccc(Cl)cc23)CC1		8.9 mg/kg	22.7 mg/kg	
CN1CCC(Sc2c[nH]c3ccc(O)cc23)CC1	9%			
CCOC(=O)N1CCC(Sc2c[nH]c3ccc(Br)cc23)CC1		6.3 mg/kg	27.3 mg/kg	
Clc1ccc2[nH]cc(SC3CCN(CCc4ccccc4)CC3)c2c1		8.9 mg/kg		inhibition in vivo at 30 mg/kg [4]: 14%
CC(=O)N1CCC(Sc2c[nH]c3ccc(Br)cc23)CC1		2.9 mg/kg	2.8 mg/kg	
CCN1CCC(Sc2c[nH]c3ccc(Cl)cc23)CC1	42%		33.3 mg/kg	
O=S(=O)(c1c[nH]c2ccc(Cl)cc12)C1CCNCC1		12.5 mg/kg	8.4 mg/kg	
CC(C)N1CCC(Sc2c[nH]c3ccc(Cl)cc23)CC1	38%			
CN1CCC(Sc2c[nH]c3ccc(Cl)cc23)CC1		4 mg/kg	16.9 mg/kg	ED50 [5]: 4.9 mg/kg; Ki [6]: 3.01 nM; inhibition in vivo at 60 mg/kg [7]: 62%; ED50 [8]: 25.3 mg/kg
CN1CCC(Sc2cn(C)c3ccc(Br)cc23)CC1		5.4 mg/kg	8.6 mg/kg	
CN1CCC(Sc2cn(C)c3ccc(Cl)cc23)CC1		3.9 mg/kg	9.3 mg/kg	
Cc1[nH]c2ccc(F)cc2c1SC1CCN(C)CC1		35.6 mg/kg		

Compound	inhibition in vivo at 30 mg/kg [1]	ED50 [2]	ED50 [3]	other results
Cc1ccc2[nH]cc(SC3CCN(C)CC3)c2c1	25%			
CON1CCC(Sc2c[nH]c3ccc(Cl)cc23)CC1		1.4 mg/kg	2.3 mg/kg	
Cc1c(SC2CCNCC2)c2cc(Cl)ccc2n1Cc1ccc(Cl)cc1	27%			
CON1CCC(Sc2c[nH]c3ccc(Br)cc23)CC1		1.6 mg/kg	3.2 mg/kg	
Cc1[nH]c2ccc(Cl)cc2c1SC1CCNCC1		0.8 mg/kg	9.9 mg/kg	
Cc1[nH]c2ccc(F)cc2c1SC1CCNCC1		5.9 mg/kg	12.7 mg/kg	
O=CN1CCC(Sc2c[nH]c3ccc(Br)cc23)CC1	31%			
Cc1[nH]c2ccc(C(F)(F)F)cc2c1SC1CCNCC1		19.4 mg/kg		inhibition in vivo at 30 mg/kg [4]: 41%
Clc1ccc(-c2[nH]c3ccc(Cl)cc3c2SC2CCNCC2)cc1	26%			
CN1CCC(S(=O)(=O)c2c[nH]c3ccc(Cl)cc23)CC1		5.4 mg/kg	16 mg/kg	
CN1CCC([S+]([O-])c2c[nH]c3ccc(Cl)cc23)CC1 (stereo not given)	44%			
Clc1ccc2[nH]cc(SC3CCN(Cc4ccccc4)CC3)c2c1		9.7 mg/kg		inhibition in vivo at 30 mg/kg [4]: 32%
CON1CCC(Sc2cn(C)c3ccc(C(=O)O)cc23)CC1	25%			
Cc1[nH]c2ccc(Br)cc2c1SC1CCNCC1		0.7 mg/kg	3.1 mg/kg	
CCCCn1cc(SC2CCN(C)CC2)c2cc(Br)ccc21	21%			
CC(C)c1ccc2[nH]cc(SC3CCN(C)CC3)c2c1	48%			
CN1CC[C@]23c4c5ccc(O)c4O[C@H]2[C@@H](O)C=C[C@H]3[C@H]1C5 [MORPHINE]			28.9 mg/kg	ED50 [9]: 15 mg/kg; Dose [10]: 5.2 mg/kg; ED50 [11]: 4.4 mg/kg
